Measured values: ChEMBL document CHEMBL3351849, “Synthesis, biological activity and mechanistic insights of 1-substituted cyclopropylamine derivatives: a novel class of irreversible inhibitors of histone demethylase KDM1A” (Eur J Med Chem, 2014)
The source made the active and inactive calls. The calls are words filed in the database; no cut-off is given here.

Tests used:
[1] = biological target: T1, Amine oxidase [flavin-containing] A (Homo sapiens, UniProt P21397)
T1 sequence (P21397 whole entry): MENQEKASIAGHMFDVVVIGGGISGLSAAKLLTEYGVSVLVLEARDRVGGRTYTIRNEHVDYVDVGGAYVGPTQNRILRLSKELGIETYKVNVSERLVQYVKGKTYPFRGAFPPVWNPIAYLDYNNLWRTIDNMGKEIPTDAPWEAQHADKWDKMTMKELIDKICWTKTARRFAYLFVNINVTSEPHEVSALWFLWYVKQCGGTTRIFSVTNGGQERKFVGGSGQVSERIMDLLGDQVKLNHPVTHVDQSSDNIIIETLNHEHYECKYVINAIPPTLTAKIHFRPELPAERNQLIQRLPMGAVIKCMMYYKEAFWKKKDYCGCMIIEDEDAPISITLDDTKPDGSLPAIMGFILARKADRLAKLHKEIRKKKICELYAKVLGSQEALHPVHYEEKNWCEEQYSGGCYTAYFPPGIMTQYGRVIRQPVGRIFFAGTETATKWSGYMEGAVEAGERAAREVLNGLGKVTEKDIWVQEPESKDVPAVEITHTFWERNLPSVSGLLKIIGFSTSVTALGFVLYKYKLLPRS

[2] = biological target: T2, Amine oxidase [flavin-containing] B (Homo sapiens, UniProt P27338)
T2 sequence (P27338 whole entry): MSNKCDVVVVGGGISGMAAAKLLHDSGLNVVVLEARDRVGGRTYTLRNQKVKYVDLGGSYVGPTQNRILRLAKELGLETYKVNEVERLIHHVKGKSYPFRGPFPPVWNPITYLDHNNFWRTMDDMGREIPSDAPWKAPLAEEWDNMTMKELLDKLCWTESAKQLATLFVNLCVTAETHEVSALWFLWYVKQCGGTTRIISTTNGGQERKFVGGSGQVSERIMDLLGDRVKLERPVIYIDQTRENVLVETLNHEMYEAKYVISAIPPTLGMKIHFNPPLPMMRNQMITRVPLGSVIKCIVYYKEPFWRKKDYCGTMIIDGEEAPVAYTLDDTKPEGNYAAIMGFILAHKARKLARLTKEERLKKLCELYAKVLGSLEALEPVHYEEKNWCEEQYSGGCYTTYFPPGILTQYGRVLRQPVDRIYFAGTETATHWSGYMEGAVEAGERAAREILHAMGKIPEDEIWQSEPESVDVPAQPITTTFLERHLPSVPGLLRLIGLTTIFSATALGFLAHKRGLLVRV

[3] = biological target: T3, Lysine-specific histone demethylase 1A (Homo sapiens, UniProt O60341); assay: Inhibition of human recombinant KDM1A/CoREST expressed in Escherichia coli assessed as reduction in H2O2 release at 22 uM using synthetic mono-methylated H3-K4 peptide (21 amino acids) substrate by horseradish peroxidase coupled enzyme assay
[4] = biological target: T3, Lysine-specific histone demethylase 1A; assay: Inhibition of human recombinant KDM1A/CoREST expressed in Escherichia coli assessed as reduction in H2O2 release at 100 uM using synthetic mono-methylated H3-K4 peptide (21 amino acids) substrate by horseradish peroxidase coupled enzyme assay
[5] = biological target: T3, Lysine-specific histone demethylase 1A
[6] = biological target: T3, Lysine-specific histone demethylase 1A; assay: Inhibition of KDM1A in human NB4 cells assessed as increase in Gfi-1b mRNA expression up to 100 uM incubated for 24 hrs by quantitative RT-PCR method; type: cell-based; details: NB-4
[7] = biological target: T3, Lysine-specific histone demethylase 1A; remark: listed apart in the source

Row | IC50 [1] | IC50 [2] | SMILES | other results
1 | 3510 nM | 50500 nM | N[C@]1(Cc2ccccc2)C[C@@H]1c1ccccc1 (relative stereo) | –
2 | 235 nM | 5550 nM | N[C@]1(c2ccccc2)C[C@H]1c1ccccc1 | –
3 | 8310 nM | 74300 nM | N[C@@]1(Cc2ccccc2)C[C@@H]1c1ccccc1 | –
4 | 2590 nM | 28100 nM | N[C@]1(Cc2ccccc2)C[C@H]1c1ccccc1 | –
5 | 94 nM | 11500 nM | N[C@@]1(c2ccccc2)C[C@@H]1c1ccccc1 | –
6 | 527 nM | 600 nM | CCC[C@@]1(N)C[C@H]1c1ccccc1 (relative stereo) | –

More lines, now with the values behind:

Row | SMILES | IC50 [1] | IC50 [2] | other results
7 | CC[C@@]1(N)C[C@@H]1c1ccccc1 (relative stereo) | 1920 nM | 190 nM | –
8 | NCC(=O)c1ccccc1 | – | – | inhibition [3]: 30%
9 | N[C@@]1(c2ccccc2)C[C@H]1c1ccccc1 (relative stereo) | 82.8 nM | 10400 nM | –
10 | N[C@]1(Cc2ccc3ccccc3c2)C[C@H]1c1ccccc1 (relative stereo) | 1300 nM | 12700 nM | –
11 | N[C@@H]1C[C@@H]1Oc1ccccc1 (relative stereo) | – | – | inhibition [4]: 0%
12 | CC[C@]1(N)C[C@@H]1c1ccccc1 | 1430 nM | 88 nM | –
13 | CCOC(=O)[C@]1(N)C[C@H]1c1ccccc1 (relative stereo) | – | – | inhibition [4]: 11%; IC50 [5]: > 100000 nM
14 | N[C@@]1(C(=O)O)C[C@H]1c1ccccc1 (relative stereo) | – | – | inhibition [4]: 21%; IC50 [5]: > 100000 nM
15 | NC[C@@H]1C[C@H]1c1ccccc1 (relative stereo) | – | – | inhibition [4]: 0%
16 | N[C@H]1C[C@@H]1Oc1ccccc1 (relative stereo) | – | – | inhibition [4]: 0%
17 | CC[C@@]1(N)C[C@H]1c1ccccc1 | 6800 nM | 33300 nM | –
18 | C#CCN(C)CCCOc1ccc(Cl)cc1Cl [CLORGILINE] | – | – | inhibition [6]: inactive; IC50 [7]: Not Active
19 | N[C@]1(CCc2ccccc2)C[C@H]1c1ccccc1 (racemic) | 21.4 nM | 941 nM | –
